Common to all, as to assay: NCI tumour cell line growth inhibition, 48 h
Test [1] has as its system COLO 205 colon.
In test [2] the test system is SF-268 CNS.
Test [3] deals with U251 CNS.
Test [4] relates to A549 NSCLC.
Test [5] relates to HL-60(TB) leukemia.
Test [6] relates to HCT-15 colon.
The test system of test [7] is IGROV1 ovarian.
The subject of test [8] is NCI/ADR-RES ovarian.
Test [9] concerns NCI-H23 lung.
Test [10] concerns SK-OV-3 ovarian.

The text below walks through data of PubChem BioAssay (NCI).

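How tested: cells in 96-well plates exposed to compound for 48 hours at five concentrations. GI50 = concentration required for 50% inhibition of growth. TGI denotes the concentration required for complete inhibition of growth.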 Where a SMILES comes first, the peptide text is derived from it. [ ]: non-standard residue; d: D form. The star is where a group is joined. X28 = COC1=CC(=O)N(C(=O)[C@@H](O*)C(C)C)[C@H]1Cc1ccccc1; NMeV = CN[C@H](C(=O)O)C(C)C; Hexanoyl = CCCCCC(=O)* Where only a bound is given, the exact number is not on record here.

In the case of `CCOC(=O)N(Cc1cccs1)c1cc(OC)c(OC)c(OC)c1`, the TGI is 32.9 µM in test [1]; greater than 100 µM in [2]; greater than 100 µM in test [3]; greater than 100 µM in [4]; greater than 100 µM in [5]; greater than 100 µM in [6]. Moreover, the TGI in test [7] is greater than 100 µM; in test [8], 29.2 µM; in test [9], greater than 100 µM.
As to `CCCNC(=O)c1cc(NC(=O)c2cc(NC(=O)/C=C/c3ccccc3)c(OC)c(OC)c2)c(OC)c(OC)c1`, the TGI in test [1] was greater than 100 µM; in [2], 8.68 µM; in [3], 13.9 µM; in test [4] it was 23.9 µM; in test [5], greater than 100 µM; in test [6], greater than 100 µM. The TGI in test [7] is 31.7 µM; in test [8] it was 56 µM; in test [9], greater than 100 µM; in test [10], 25.1 µM.
For the compound `CCN(CC)CC(C)Nc1ccc([N+](=O)[O-])c2sc3ccccc3c(=O)c12` (stereo not given), the GI50 was 0.941 µM in test [1]; 2.71 µM in test [2]; 1.46 µM in test [3]; 0.938 µM in test [4]; 2.82 µM in [5]; 1.6 µM in test [6]. In addition, the GI50 was 1.08 µM in test [7], 2.65 µM in test [8], 2.42 µM in test [9] and 1.87 µM in [10]. The TGI in [1] came out at 3.35 µM; in test [2] it was 18.5 µM; in [3], 10.7 µM; in test [4], 5.04 µM; in test [5] it was 11.7 µM; in test [6], 23.8 µM. Moreover, the TGI was 4.18 µM in test [7], greater than 58.5 µM in [8], 16.1 µM in test [9] and 13.2 µM in [10].
For the compound `N=c1c2c(C(N)=O)cn(C3OC(CO)C(O)C3O)c2ncn1O` (stereo not given), the TGI in test [1] was 1.23 µM; in [3], 3.14 µM; in test [4], 2.11 µM; in test [5], 0.659 µM; in test [6], 0.388 µM; in [7], greater than 100 µM. Moreover, the TGI in test [8] was 0.447 µM; in [9], 0.358 µM; in test [10], greater than 36.3 µM. The GI50 in test [5] was 0.191 µM.
For `CCOC(=O)CSc1nc(N)c2c(-c3ccc(OC)c(OC)c3)c3c(nc2n1)CCCC3`, the TGI in test [1], in test [2], in test [3], in test [4], in [5] and in [6] was greater than 100 µM throughout. The TGI in [7], in test [8], in test [9] and in [10] was greater than 100 µM each time.
`CCOC(=O)C1(C(=O)OCC)Nc2cccnc2N(C)N1`: the TGI was 24.2 µM in test [1]; greater than 100 µM in test [2]; 41.4 µM in [3]; greater than 100 µM in test [4]; 58 µM in test [5]; 36.2 µM in test [6]. For the same compound, the TGI is 42.1 µM in test [7], 43.8 µM in [8], 42.1 µM in [9] and greater than 100 µM in test [10].
`CN1CC[C@@]2(c3cccc(O)c3)CC(=O)/C(=C/c3ccccc3)[C@H]1C2`: the TGI turned out to be 30.3 µM in [1]; 19.7 µM in [2]; 11.1 µM in test [3]; 36.9 µM in test [4]; 7.73 µM in test [5]; 41.2 µM in [6]. In addition, the TGI stood at 36.2 µM in test [7], 24.5 µM in test [8] and 46.4 µM in test [9].
Take `CCS(=O)(=O)Nc1ccc(Nc2c3ccccc3nc3ccccc23)c(OC)c1`: the TGI in test [1] came to 7.28 µM; in test [2], 12.5 µM; in test [3] it was 2.43 µM; in test [4] it was 1.7 µM; in [5], 0.13 µM; in test [6], 5.11 µM. Further, the TGI in test [7] was determined as 22.4 µM; in [8], 20.6 µM; in test [9] it was 3.79 µM; in [10], 5.89 µM.
Take `N=C(N)c1ccc(-c2ccc(-c3cc(Cl)cc(Cl)c3)o2)nc1`: the GI50 in test [1] was 2.01 µM; in test [2] it was 1.82 µM; in test [3] it was 1.76 µM; in [5], 2.42 µM; in [6] it was 1.8 µM; in test [7], 2.09 µM. In addition, the values for the GI50 in test [8], in test [9] and in test [10] were 1.93 µM, 1.96 µM and 1.95 µM, respectively. The TGI in [1] is 3.78 µM; in [2] it was 3.46 µM; in test [3] it was 3.31 µM; in [5], 4.62 µM; in [6], 3.46 µM; in test [7], 3.79 µM. Besides, the TGI worked out at 3.81 µM in test [8], 3.93 µM in test [9] and 3.51 µM in test [10].
`CCC1C(C#N)=C(N)OC2=C1C(=O)CC(C)(C)C2` (stereo not given): the TGI in [1], in [2], in test [3], in test [4], in test [5] and in test [6] was greater than 100 µM each time. The TGI in test [7], in test [8], in [9] and in test [10] was greater than 100 µM each time.
On to `O=S(=O)(O)c1ccc2cccc(N=Nc3c(O)ccc4ccccc34)c2c1`, for which the TGI in [1], in test [2], in test [3], in test [4], in test [5] and in [6] was greater than 100 µM in each case. Moreover, the TGI in test [7], in test [8], in test [9] and in test [10] was greater than 100 µM each time.
`COc1cc(/C=C/C(=O)c2ccc(NS(=O)(=O)c3cc([N+](=O)[O-])ccc3C)cc2)cc(OC)c1OC`: the TGI in test [1] was determined as 14.9 µM; in test [3], 13.7 µM; in test [4] it was 18.6 µM; in test [5], 11.1 µM; in test [6], 13.4 µM; in test [7] it was 17.1 µM. For the same compound, the values for the TGI in test [8], in test [9] and in test [10] were greater than 100 µM, 11 µM and 15.4 µM, respectively.
As to `CCCCCC(=O)N[C@H](C(=O)N[C@H](C(=O)N(C)[C@H](C(=O)N1CCC[C@H]1C(=O)N1CCC[C@H]1C(=O)O[C@H](C(=O)N1C(=O)C=C(OC)[C@@H]1Cc1ccccc1)C(C)C)C(C)C)C(C)C)C(C)C` (Hexanoyl-VV[NMeV]PP-X28), the TGI in test [1], in test [2], in test [3], in [5], in [6] and in test [7] was greater than 100 µM throughout. Besides, the TGI in test [8], in test [9] and in [10] was greater than 100 µM in each case.
Consider `COc1cccc(N=Cc2cc3cc(Br)ccc3nc2Cl)c1`, for which the TGI in [1], in [2], in test [4], in test [5], in test [6] and in test [7] was greater than 50 µM each time. Further, the TGI in test [8], in [9] and in test [10] was greater than 50 µM each time.
Consider `CC#CC#C/C=C1/O[C@]2(CCC(OC(C)=O)CO2)[C@@H]2O[C@H]12` (stereo not given in full), for which the TGI is 32.4 µM in [1]; greater than 100 µM in test [2]; 39.1 µM in test [3]; greater than 100 µM in test [4]; 48.7 µM in test [5]; 42.8 µM in test [6]. Besides, the TGI in [7] is greater than 100 µM; in test [8] it was 58.1 µM; in test [9], 44.7 µM; in test [10], greater than 100 µM.
In the case of `N=c1oc2c(Cl)cc(Cl)cc2cc1C(=O)Nc1cccc2ccccc12`, the TGI in [1] is greater than 32.7 µM; in test [2], greater than 100 µM; in test [3], 7.01 µM; in test [4], greater than 100 µM; in [5], greater than 100 µM; in test [6] it was greater than 100 µM. Further, the TGI in [7] is 40.6 µM; in test [8], 28.2 µM; in [9] it was greater than 52.6 µM; in [10] it was greater than 77.6 µM.
Take `CCSCCC(N)C(=O)O` (stereo not given): the TGI in [1], in [2], in [3], in [4], in [5] and in test [6] was greater than 100 µM throughout. Besides, the TGI in [7], in test [8], in test [9] and in test [10] was greater than 100 µM throughout.
As to `CCOC(=O)c1nc2ccc(Cl)cc2c2c1Cc1ccccc1-2`, the TGI in test [1], in test [2], in test [3], in [4], in test [6] and in test [7] was greater than 100 µM each time. Further, the TGI in test [9] was greater than 100 µM.
`COc1cc(C2C(C(=O)O)=C(CO)Oc3cc4c(cc32)OCO4)cc(OC)c1O` (stereo not given): the TGI in test [1], in [3], in test [4], in test [5], in test [6] and in test [7] was greater than 100 µM in each case. The TGI in [10] was greater than 100 µM.
As for `O=C(CCCCCCC(=O)Nc1ccc(N(CCCl)CCCl)cc1)NO`, the GI50 in test [1] is 4.4 µM; in [2], 1.08 µM; in test [6], 18.9 µM; in [7], 2.51 µM; in test [8] it was 5.4 µM; in [9] it was 2.1 µM. The GI50 in [10] is 3.76 µM. The TGI in test [1] was 19.9 µM; in [2], 3.82 µM; in test [6], greater than 100 µM; in [7] it was 21.2 µM; in test [8], greater than 100 µM; in [9] it was 8.64 µM. In [10], this compound returned a TGI of 15.9 µM.
On to `CN(C)CC(=O)Nc1ccc(Cn2nnc3c2C(=O)c2nnn(Cc4ccc(NC(=O)CN(C)C)cc4)c2C3=O)cc1`, for which the GI50 in test [1] is 0.087 µM; in test [3] it was 0.183 µM; in test [5], 0.074 µM; in test [8], greater than 100 µM; in test [9], 0.192 µM; in test [10], 0.0949 µM. The TGI is 0.253 µM in [1]; 0.361 µM in test [3]; 0.5 µM in test [5]; greater than 100 µM in test [8]; 0.488 µM in test [9]; 0.222 µM in [10].
On to `ONc1ncnc2nc[nH]c12`, for which the TGI in test [1], in test [2], in [3], in [4], in test [5] and in test [6] was greater than 100 µM in each case. Also, the TGI in test [7] and in test [9] was greater than 100 µM each time.
On to `CCCc1[nH]c(SCCCCCCCCSc2nc(-c3ccc(F)cc3)c(CCC)[nH]2)nc1-c1ccc(F)cc1`, for which the TGI in test [1] was greater than 100 µM; in test [2] it was 16.9 µM; in test [3], greater than 100 µM; in test [4], greater than 100 µM; in test [5], greater than 100 µM; in [6] it was greater than 100 µM. Moreover, the TGI in test [7] is greater than 100 µM; in test [9] it was 30.6 µM.
For `COc1ccc2nc(-c3ccc(-c4noc(-c5cc(OC)c(OC)c(OC)c5)n4)cc3)[nH]c2c1`, the GI50 was 7.13 µM in test [2]; 1.68 µM in test [3]; 5.65 µM in test [4]; 20.2 µM in test [5]; 1.49 µM in test [6]; 26.3 µM in test [7]. Moreover, the GI50 was 3.32 µM in test [8], 4.1 µM in test [9] and 25.3 µM in [10]. In addition, the TGI turned out to be 45.6 µM in test [2]; 4.88 µM in test [3]; 20.3 µM in test [4]; 81.7 µM in [5]; 13.3 µM in test [6]; 69.1 µM in test [7]. The TGI was 23.6 µM in test [8], 20 µM in test [9] and 64.8 µM in test [10].
For the compound `O=C(N/N=C(/c1ccccc1)C(F)(F)F)c1ccncc1`, the TGI in test [1], in test [3], in test [5], in test [6], in test [7] and in [8] was greater than 100 µM each time. Besides, the TGI in [9] and in test [10] was greater than 100 µM in each case.
